The target of the data set is T1, OATP1B1*5 (Homo sapiens, UniProt Q9Y6L6, V174A).
T1 construct: expressed in transfected cells
T1 sequence (Q9Y6L6 1-691 V174A): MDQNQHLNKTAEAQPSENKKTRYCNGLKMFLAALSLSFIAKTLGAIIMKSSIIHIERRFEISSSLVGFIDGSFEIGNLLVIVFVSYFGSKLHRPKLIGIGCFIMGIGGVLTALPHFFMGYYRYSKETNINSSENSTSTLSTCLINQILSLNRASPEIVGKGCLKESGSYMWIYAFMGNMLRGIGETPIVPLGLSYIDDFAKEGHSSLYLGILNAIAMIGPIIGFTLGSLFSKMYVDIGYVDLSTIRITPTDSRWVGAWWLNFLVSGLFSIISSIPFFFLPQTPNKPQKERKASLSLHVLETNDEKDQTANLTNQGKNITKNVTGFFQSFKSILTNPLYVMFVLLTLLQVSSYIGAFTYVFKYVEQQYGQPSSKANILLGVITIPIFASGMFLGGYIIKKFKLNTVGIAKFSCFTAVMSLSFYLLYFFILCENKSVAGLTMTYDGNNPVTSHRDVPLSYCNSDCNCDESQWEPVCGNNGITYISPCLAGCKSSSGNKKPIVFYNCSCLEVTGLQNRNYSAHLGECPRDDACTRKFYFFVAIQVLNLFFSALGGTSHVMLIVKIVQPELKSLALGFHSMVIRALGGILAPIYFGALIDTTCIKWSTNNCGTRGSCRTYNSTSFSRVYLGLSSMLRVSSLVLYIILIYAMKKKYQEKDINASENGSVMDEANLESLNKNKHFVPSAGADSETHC
The data set can be described thus: Remdesivir uptake into HEK cells stably expressing OATP1B1*5 vs vector control. In kind it is in vitro ADME. As to conditions: 0.5 µM remdesivir, 10 min. The text has this:
Generation, cultivation and characterization of human embryonic kidney (HEK) cells stably expressing OATP1B1 refseq (=OATP1B1*1a), OATP1B1*1b, OATP1B1*5 and OATP1B1*15 [18], OATP1B3 [19], OATP2B1 [13] and OCT1 [20] have been described previously. OATP1B1 cells were cultivated in minimal essential medium (Life Technologies, Paisley, UK) and OATP1B3, OATP2B1 and OCT1 cells were cultivated in Dulbecco’s modified Eagle medium (Sigma, Darmstadt, Germany). Cultivation media were supplemented with 10% fetal calf serum, 100 U/mL penicillin and 100 µg/mL streptomycin. Cells were grown at 37 °C and 5% CO2. Functionality of the cells was confirmed by measuring uptake of prototypic substrates (see Section 2.3 and supplementary material).
Uptake assays were conducted at 37 °C according to previously described methods. For this, cells were seeded in 24-well plates (320,000 cells/well) and cultured for 2 days. Cells were then incubated for a further 24 h in culture medium with 5 mM butyrate (OATP1B3, OATP2B1, OCT1) or 10 mM butyrate (OATP1B1) to increase protein levels of recombinant transporters. […]
Remdesivir was determined by UHPLC-MS-MS analysis on an Agilent 1290 infinity UHPLC system coupled to an Agilent 6495B triple quadrupole mass spectrometer (Agilent, Waldbronn, Germany) similar to a recently published method. […]

One molecule from publication PMC7999182, “Interaction of Remdesivir with Clinically Relevant Hepatic Drug Uptake Transporters” (Pharmaceutics, 2021) can be followed below.

With `CCC(CC)COC(=O)[C@H](C)N[P@](=O)(OC[C@H]1O[C@@](C#N)(c2ccc3c(N)ncnn23)[C@H](O)[C@@H]1O)Oc1ccccc1` [Remdesivir], the “Uptake vs vector-transfected control cells” value was “significantly lower uptake”.
